Source: the METLIN SMRT retention time set (Domingo-Almenara et al. 2019)

Test: gradient 5% acetonitrile 3 min, to 50% in 2 min, to 85% in 15 min, held 3 min, 100 µL/min
Details: column: Zorbax Extend-C18 2.1 x 50 mm; eluents: water / acetonitrile, 0.1% formic acid
In short: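 Retention times of pure standards were taken from adduct peaks that were selected by computer and manually inspected. Over 3 months, mixtures of ~100 molecules were run by HPLC–quadrupole time-of-flight mass spectrometry in positive and negative ionization mode. The Zorbax Extend-C18 column (2.1 × 50 mm, 1.8 μm) ran at 100 μL/min in water and acetonitrile, each containing 0.1% formic acid, with 40 μL dead volume and 900 μL dwell volume.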

Work on `Cc1cc(Cl)ccc1NS(=O)(=O)c1ccc(-c2c(C)noc2C)cc1` yielded an RP-LC retention time of 1030 s.
Work on `COc1ccc(S(=O)(=O)N2C[C@@H]3C[C@H]2C[C@@H]3NC(=O)c2ccccc2)cc1Cl` yielded an RP-LC retention time of 861 s.
`CCc1cc(=O)n(CC(=O)Nc2cccc(C)c2)c(N2CCOCC2)n1` showed an RP-LC retention time of 770 s.
Work on `O=C(Nc1ccccc1F)N1CC(F)(F)C[C@H]1CN1CCCC1` yielded an RP-LC retention time of 620 s.
`O=C(c1cccs1)N1CCN(c2ccc(=O)n(-c3ccc(Cl)cc3)n2)CC1` showed an RP-LC retention time of 834 s.
For `CC(C)NC(=O)NCCN1CCN(c2ccccc2)CC1`, the RP-LC retention time was 569 s.
In the case of `CC(=O)N1CCCSc2ccc(S(=O)(=O)N3CCN(c4ccc(Cl)cc4)CC3)cc21`, the RP-LC retention time is reported as 983 s.
Work on `CCN(Cc1ccccc1)C(=O)Cn1c(N2CCOCC2)nc(C)cc1=O` yielded an RP-LC retention time of 673 s.
With `C/C(=C\c1csc(C)n1)C1C[C@@H]2O[C@]2(C)CCC[C@H](C)[C@H](O)[C@@H](C)C(=O)C(C)(C)[C@@H](O)CC(=O)N1` (stereo partly drawn) the RP-LC retention time was 668 s.
In the case of `CCOc1ccc(-n2c(=O)c3sccc3n(Cc3nc(-c4ccc(F)c(Cl)c4)no3)c2=O)cc1`, the RP-LC retention time is reported as 1140 s.
With `CN(CCc1noc(COc2ccccc2F)n1)C(=O)c1c(F)cccc1F` the RP-LC retention time was 885 s.
In the case of `O=C(NCc1cccnc1)C(CCO)Sc1nc2sc3c(c2c(=O)[nH]1)CCCC3` (stereo not drawn), the RP-LC retention time is reported as 544 s.
Work on `O=C(c1ccc2c(c1)OCO2)N(CCc1cscn1)Cc1cccnc1` yielded an RP-LC retention time of 602 s.
Compound `CC(=O)Nc1ccc(CCc2nc3ccc(C(=O)NCc4ccc5c(c4)OCO5)cc3[nH]2)cc1` has an RP-LC retention time of 618 s.
With `CC(C)(Oc1ccc(Cl)cc1)C(=O)Nc1c(-c2ccc(F)cc2)nc2ccccn12` the RP-LC retention time was 821 s.
With `COc1ccccc1N1CCN(S(=O)(=O)c2cc(-c3nc(C(C)C)cs3)cs2)CC1` the RP-LC retention time was 1300 s.
With `CCCCN1CCN(S(=O)(=O)c2ccc(-c3nnc(C4CCCC4)o3)o2)CC1` the RP-LC retention time was 678 s.
With `Cc1noc(C2CN(C(=O)Nc3ccccc3)CC23CCOCC3)n1` (stereo not drawn) the RP-LC retention time was 650 s.
`COc1ccccc1CNc1c(-c2nc(C(C)C)no2)cnc2nc(C)ccc12` gave an RP-LC retention time of 797 s.
For `CN1CCn2cc(S(=O)(=O)Nc3ccc(Cl)cc3F)cc2C1=O`, the RP-LC retention time was 723 s.
Compound `COCCN1C(=O)CCc2cc(NC(=O)c3ccccc3Br)ccc21` has an RP-LC retention time of 746 s.
For `Cc1cc2nn(CC(=O)N3CCC(C)CC3)c(=O)n2c(-c2ccc(Cl)cc2)n1`, the RP-LC retention time was 867 s.
In the case of `CCN(C(=O)Cn1c(N2CCCCC2)nc(C)cc1=O)c1ccccc1`, the RP-LC retention time is reported as 661 s.
With `COC(=O)c1cc(S(=O)(=O)N2CCCC2C(=O)Nc2ccc(Cl)cc2C)cn1C` (stereo not drawn) the RP-LC retention time was 958 s.
For `O=C(CCCc1ccccc1)N1CCN(c2ccc(Nc3cccnc3)nn2)CC1`, the RP-LC retention time was 575 s.
Compound `Nc1nc(SCc2ccccc2Cl)c2ncn(C3OC(CO)C(O)C3O)c2n1` (stereo not drawn) has an RP-LC retention time of 672 s.
Compound `COC(=O)c1ncn2c1C(=O)N(Cc1ccc(F)cc1)C(C)(C(=O)NC1CCCCC1)C2` (stereo not drawn) has an RP-LC retention time of 752 s.
`COc1ccc(OC)c(NC(=O)N2CCN(c3nc4ccccc4nc3C(F)(F)F)CC2)c1` showed an RP-LC retention time of 1070 s.
`CCc1nc(-c2cc(S(=O)(=O)N3CCC(C(=O)N(CC)CC)CC3)c(C)s2)no1` showed an RP-LC retention time of 960 s.
Work on `CSc1cccc(NC(=O)C2CCN(S(=O)(=O)c3ccc4[nH]c(=O)ccc4c3)CC2)c1` yielded an RP-LC retention time of 784 s.
With `O=C1CCCN1CCCN1C(=O)[C@H]2CN(Cc3ccc(F)c(Cl)c3)C[C@H]2C1=O` the RP-LC retention time was 599 s.
Compound `O=C(Nc1nc2ccccc2[nH]1)c1cccc(Cl)c1` has an RP-LC retention time of 703 s.
Compound `CCc1nc(OCC(=O)Nc2ccc(Cl)cc2F)c2ccccc2n1` has an RP-LC retention time of 899 s.
Compound `CCN1CCN(S(=O)(=O)c2cc(-c3[nH]ncc3C(=O)N3CCCC3)oc2C)CC1` has an RP-LC retention time of 577 s.
`COc1ccc(-c2nc(NC3CCCC3)c3ccccc3n2)cc1` showed an RP-LC retention time of 825 s.
With `O=C(NCc1ccc(Cl)cc1)c1ccc2ccnc(N3CCN(C(=O)c4ccco4)CC3)c2c1` the RP-LC retention time was 739 s.
For `O=C(NC1CCCCC1)C1CCN(S(=O)(=O)c2cc(C(=O)N3CCCC3)cs2)CC1`, the RP-LC retention time was 765 s.
Work on `CCCN1CCN(C(=O)c2ccc(CS(=O)c3ccccc3Cl)o2)CC1` (stereo not drawn) yielded an RP-LC retention time of 593 s.
`CCc1ccc2nc(NCc3ccccn3)sc2c1` showed an RP-LC retention time of 621 s.
`O=C1NCCCCCN(C(=O)c2cccs2)[C@H]2CCC[C@@H]12` gave an RP-LC retention time of 698 s.
For `CCc1nn2c(CNS(=O)(=O)c3ccc(F)cc3F)c(-c3ccccc3)nc2s1`, the RP-LC retention time was 942 s.
With `O=C(Cn1nc2c(N3CCCCCC3)nccn2c1=O)Nc1ccccc1C(F)(F)F` the RP-LC retention time was 727 s.
Work on `CC(C)c1nc2ccc(C(=O)NCCN(C)C3CCCCC3)cc2o1` yielded an RP-LC retention time of 656 s.
With `CCOC(=O)c1sc(NC(=O)Cn2c(=O)oc3ccccc32)nc1C` the RP-LC retention time was 778 s.
For `O=C(NCc1csc(-c2ccccc2)n1)C1CCN(S(=O)(=O)c2cccc(F)c2)CC1`, the RP-LC retention time was 912 s.
For `COc1cccc(CNC(=O)C2(C)CCN(C(=O)Nc3ccc(Br)c(C)c3)CC2)c1`, the RP-LC retention time was 934 s.
For `CCOc1ccc(NC(=O)Cn2c(C)nc3c(sc4nc(-c5ccccc5)ccc43)c2=O)cc1`, the RP-LC retention time was 1070 s.
With `CC(NC(=O)CCC(=O)N1CCc2c(c(C(=O)N3CCOCC3)nn2C)C1)c1ccccc1` (stereo not drawn) the RP-LC retention time was 632 s.
Compound `Cc1ccc(N2C(=O)C3N=NN(c4ccc(C)c(Cl)c4)C3C2=O)cc1F` (stereo not drawn) has an RP-LC retention time of 836 s.
Compound `CC(C)N1CCn2cc(S(=O)(=O)Nc3cc(F)cc(F)c3)cc2C1=O` has an RP-LC retention time of 794 s.
Compound `CCc1cccc(NC(=O)C2CCN(S(=O)(=O)c3ccc4c(c3)NC(=O)C(C)O4)CC2)c1` (stereo not drawn) has an RP-LC retention time of 838 s.
Compound `O=C(NCCc1ccc(Cl)cc1)C1CCCN(c2ncnc3c2oc2ccccc23)C1` (stereo not drawn) has an RP-LC retention time of 855 s.
In the case of `CCCN1C(=O)COc2ccc(-c3noc(/C=C/c4ccccc4OC)n3)cc21`, the RP-LC retention time is reported as 1270 s.
`Cc1cccc(-c2noc(-c3nn(CC(=O)NCC4CCCO4)c4ccccc34)n2)c1` (stereo not drawn) gave an RP-LC retention time of 1040 s.
Work on `O=C(Nc1cccnc1OC1CCNCC1)C1(c2ccccc2)CC1` yielded an RP-LC retention time of 646 s.
Work on `Cc1cc(C)c2c(N(C)C)nc(C(=O)NC(C)c3ccccn3)nc2n1` (stereo not drawn) yielded an RP-LC retention time of 559 s.
`CCc1c(C(=O)O)nnn1-c1cccc(OC)c1` showed an RP-LC retention time of 704 s.
For `Cc1cccc(CNC(=O)C2c3ccccc3CC(=O)N2C)c1` (stereo not drawn), the RP-LC retention time was 748 s.
With `O=C(NCc1ccccc1)C1CCc2nc(N3CCCCC3)ncc2C1` (stereo not drawn) the RP-LC retention time was 720 s.
For `O[Si](CCCN1CCCCC1)(c1ccc(F)cc1)C1CCCCC1` (stereo not drawn), the RP-LC retention time was 865 s.
Compound `O=C1CCCc2cc(S(=O)(=O)N3CCN(c4cccc(Cl)c4)CC3)ccc2N1` has an RP-LC retention time of 928 s.
`Cc1cc(C)cc(N2C(=O)N(CC(=O)N3CCC(C)CC3)C3CS(=O)(=O)CC32)c1` (stereo not drawn) gave an RP-LC retention time of 816 s.
Compound `CC(C)NCc1ccc(-c2ccccc2)o1` has an RP-LC retention time of 612 s.
Compound `Cc1ccc(NC(=O)C2(Cc3cccnc3)CCCCC(=O)N2)cc1` (stereo not drawn) has an RP-LC retention time of 611 s.
In the case of `Cc1ccccc1CNC(=O)C1CCN(S(=O)(=O)c2cc(C(=O)N(C)C)cs2)CC1`, the RP-LC retention time is reported as 762 s.
With `Cc1nc(NC(=O)C2COCC(=O)N2Cc2ccccc2)sc1C(=O)N(C)C` (stereo not drawn) the RP-LC retention time was 615 s.
`COc1cccc(Nc2cc(C(=O)N3CCSCC3)nc3ccc(C)cc23)c1` showed an RP-LC retention time of 694 s.
`COc1ccc2c(c1)C1(CCN(C(=O)c3cccc(Br)c3)C1)C(=O)N2` (stereo not drawn) showed an RP-LC retention time of 754 s.
`Cc1cccc(CC(=O)NC2CCN(c3cc(-c4cccs4)[nH]n3)C2)c1` (stereo not drawn) gave an RP-LC retention time of 726 s.
In the case of `CCc1ccccc1NC(=O)c1sc(C)nc1C`, the RP-LC retention time is reported as 778 s.
In the case of `CCCn1cnc2cc(CNC(=O)Cc3c(Cl)cccc3Cl)ccc21`, the RP-LC retention time is reported as 666 s.
`O=C(NCCc1cccs1)c1ccc2nc(Cc3ccccc3)oc2c1` gave an RP-LC retention time of 949 s.
Work on `CCN(CC)CCNC(=O)CCC(=O)N1CCc2c(c(C(=O)N3CCCCC3)nn2C)C1` yielded an RP-LC retention time of 573 s.
For `Cc1cc(C)c2c(N(C)C)nc(C(=O)Nc3ccc(N4CCOCC4)cc3)nc2n1`, the RP-LC retention time was 595 s.
For `COc1ccc(S(=O)(=O)N(C)C2CCc3nn(CC4CC4)c(=O)n3CC2)cc1Cl` (stereo not drawn), the RP-LC retention time was 810 s.
With `Cc1ccn2cc(-c3ccc(NS(=O)(=O)c4cc(C)c(C)cc4C)cc3)nc2n1` the RP-LC retention time was 712 s.
`Cc1ccc(-n2c(=O)c3c(cc(C)n3C)n(CC(=O)Nc3ccc(C)cc3Cl)c2=O)cc1` showed an RP-LC retention time of 960 s.
In the case of `CCn1nccc1C(=O)Nc1cccc(-c2nnc3n2CCCC3)c1`, the RP-LC retention time is reported as 644 s.
`CCN(C(=O)Cc1c(C(=O)O)c(C)cn1CC)c1cccc(Cl)c1` gave an RP-LC retention time of 839 s.
`CC(C)OCCCNC(=O)C1CCN(S(=O)(=O)c2ccc3c(c2)CCCC(=O)N3)CC1` showed an RP-LC retention time of 674 s.
Work on `Cn1cnc(S(=O)(=O)N2CCC(C(=O)N3CCN(c4cccc(C(F)(F)F)c4)CC3)CC2)c1` yielded an RP-LC retention time of 823 s.
Compound `Cc1noc(C2CN(C(=O)Nc3ccc(Cl)cc3F)CC23CCOCC3)n1` (stereo not drawn) has an RP-LC retention time of 769 s.
For `CCOc1ccc2nc(C(=O)NC3CCCCC3)cn2n1`, the RP-LC retention time was 897 s.
`CCn1nnc2ccc(-c3noc(-c4ccc(NC(C)=O)cc4)n3)cc21` gave an RP-LC retention time of 807 s.
`Cc1ccn2c(Nc3ccc4c(c3)OCCO4)c(-c3cccc(Br)c3)nc2c1` showed an RP-LC retention time of 739 s.
For `CCCN(CC1CCOC1)S(=O)(=O)c1ccc(OC)c(Cl)c1` (stereo not drawn), the RP-LC retention time was 936 s.
Work on `CN(Cc1cc(C(F)(F)F)ccc1Cl)C1CCc2nn(C)c(=O)n2CC1` (stereo not drawn) yielded an RP-LC retention time of 610 s.
Compound `O=C(NCCCN1CCCC1)c1ccc(-c2ccc(NCc3ccccc3)nn2)cc1` has an RP-LC retention time of 586 s.
